Assay results published in ChEMBL document CHEMBL1201862, “PubChem BioAssay data set” (2004).
The source made the active and inactive calls.

Legend:
[1] = system: Vero; experiment: Vero 76 cell viability after compound exposure – Vero 76 cells, synthesized analogs, cytotoxicity control for West Nile virus antiviral project, SAR follow-up (AID 2414); format: functional; settings: Chlorocebus sabaeus
[2] = system: Vero; experiment: Vero cell viability after compound exposure – synthesized analogs, set II, cytotoxicity control for West Nile virus antiviral project, SAR follow-up (AID 2402); format: functional; settings: Chlorocebus sabaeus
[3] = system: Vero; experiment: host cell viability loss, Vero E6 – synthesized analogs, cytotoxicity control for West Nile virus antiviral project, SAR follow-up (AID 2244); format: functional; settings: Chlorocebus sabaeus
[4] = A Cell Based Assay for the Identification of Probe candidate Compounds with Anti- Venezuelan Equine Encephalitis virus. [Related pubchem assays: 2409, 2419, 1621, 2238, 2405, 2024, 2065, 2402, 2414, 1635, 1650, 2244 ]; format: functional
[5] = system: Vero; experiment: antiviral protection of cells from WNV – synthesized analogs, SAR follow-up (AID 2238); format: functional, cell-based; settings: Chlorocebus sabaeus
[6] = system: Vero; experiment: antiviral activity against WNV, CPE read-out – cell-based (AID 2419); format: functional; settings: Chlorocebus sabaeus
[7] = system: Vero; experiment: inhibition of WNV-induced cytopathic effect – cell-based, CPE readout (AID 1621); format: functional; settings: Chlorocebus sabaeus
[8] = target: Mu-type opioid receptor (Homo sapiens, UniProt P35372); experiment: SAR Analysis of Antagonists of the MOR Receptor using an Image-Based Assay - Set 3. [Related pubchem assays (depositor defined):AID1777, AID1785, AID1786, AID1966, AID2133, AID2136, AID2284, AID2285, AID2420]; format: functional
[9] = target: Delta-type opioid receptor (Homo sapiens, UniProt P41143); experiment: SAR Analysis of Antagonists of the DOR Receptor using an Image-Based Assay - Set 3. [Related pubchem assays (depositor defined):AID1777, AID1785]; format: functional;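 note: U2OS cells expressing DOR1 and beta-arrestin GFP stimulated with 100 nM SNC80; imaging of GFP-tagged beta-arrestin moving into spots after receptor activation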
[10] = target: T1, Kappa-type opioid receptor (Homo sapiens, UniProt P41145); experiment: SAR analysis of small molecule antagonists of the kappa opioid receptor via a luminescent beta-arrestin assay - Set 3. [Related pubchem assays (depositor defined):AID1777, AID1778, AID1785, AID1786, AID1966, AID2133, AID2136, AID2285, AID2495]; format: functional
[11] = target: T1, Kappa-type opioid receptor; experiment: SAR analysis of Antagonists of the Kappa Opioid Receptor (KOR) using an Image-Based Assay - Set 3. [Related pubchem assays (depositor defined):AID1777, AID1785]; format: functional
[12] = target: T2, G-protein coupled receptor 35 (Homo sapiens, UniProt Q9HC97); experiment: SAR analysis of Antagonists of the GPR35 Receptor using an Image-Based Assay - Set 5. [Related pubchem assays (depositor defined):AID2058, AID2079]; format: functional
[13] = target: T2, G-protein coupled receptor 35; experiment: SAR Analysis for the identification of Selective Antagonists of ERK1/2 Activity in GPR35-Overexpressing U2OS Cells - Set 2. [Related pubchem assays (depositor defined):AID2058, AID2079]; format: functional, cell-based
[14] = target: G-protein coupled receptor 55 (Homo sapiens, UniProt Q9Y2T6); experiment: SAR Analysis of Selective Antagonists of GPR55 using an Image-Based Assay - Set 3. [Related pubchem assays (depositor defined):AID2058, AID2079]; format: functional
Sequence of G-protein coupled receptor 55 (Q9Y2T6 whole entry): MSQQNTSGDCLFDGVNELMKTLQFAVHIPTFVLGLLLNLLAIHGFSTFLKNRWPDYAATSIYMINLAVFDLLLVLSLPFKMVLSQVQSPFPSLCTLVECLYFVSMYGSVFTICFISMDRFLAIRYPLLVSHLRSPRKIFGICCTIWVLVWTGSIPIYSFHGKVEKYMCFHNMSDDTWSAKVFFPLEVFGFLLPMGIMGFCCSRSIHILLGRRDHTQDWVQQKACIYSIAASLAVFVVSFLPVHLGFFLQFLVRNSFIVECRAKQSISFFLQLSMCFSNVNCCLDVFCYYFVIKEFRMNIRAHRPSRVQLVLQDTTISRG

T2 sequence (Q9HC97 whole entry): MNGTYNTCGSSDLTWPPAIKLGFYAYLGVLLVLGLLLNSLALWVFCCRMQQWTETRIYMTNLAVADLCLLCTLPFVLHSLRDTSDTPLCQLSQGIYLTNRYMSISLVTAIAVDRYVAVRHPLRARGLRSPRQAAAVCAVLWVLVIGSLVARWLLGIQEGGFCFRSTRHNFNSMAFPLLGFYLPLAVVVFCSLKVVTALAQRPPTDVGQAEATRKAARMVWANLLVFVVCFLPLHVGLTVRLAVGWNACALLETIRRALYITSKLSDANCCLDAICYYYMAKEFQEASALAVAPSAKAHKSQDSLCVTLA
T1 sequence (P41145 whole entry): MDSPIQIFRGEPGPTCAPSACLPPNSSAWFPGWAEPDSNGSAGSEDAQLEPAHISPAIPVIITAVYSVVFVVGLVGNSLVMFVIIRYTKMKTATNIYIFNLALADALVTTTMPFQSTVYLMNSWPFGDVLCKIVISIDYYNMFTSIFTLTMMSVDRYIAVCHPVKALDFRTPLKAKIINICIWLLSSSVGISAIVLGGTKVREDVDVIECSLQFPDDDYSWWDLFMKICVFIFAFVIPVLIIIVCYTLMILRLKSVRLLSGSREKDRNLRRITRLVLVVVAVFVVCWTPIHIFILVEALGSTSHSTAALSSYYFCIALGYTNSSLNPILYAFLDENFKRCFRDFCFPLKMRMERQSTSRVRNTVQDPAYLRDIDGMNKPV
Sequence of Delta-type opioid receptor (P41143 whole entry): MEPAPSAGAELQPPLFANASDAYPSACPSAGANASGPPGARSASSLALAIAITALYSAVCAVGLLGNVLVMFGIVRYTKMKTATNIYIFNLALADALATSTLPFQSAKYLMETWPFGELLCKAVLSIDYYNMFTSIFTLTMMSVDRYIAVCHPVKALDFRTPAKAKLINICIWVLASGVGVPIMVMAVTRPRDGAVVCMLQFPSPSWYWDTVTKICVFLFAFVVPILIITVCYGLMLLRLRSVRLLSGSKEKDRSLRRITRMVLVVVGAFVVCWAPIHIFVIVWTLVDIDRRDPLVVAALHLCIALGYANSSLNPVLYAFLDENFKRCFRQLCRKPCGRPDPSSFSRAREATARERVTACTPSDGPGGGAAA
Sequence of Mu-type opioid receptor (P35372 whole entry): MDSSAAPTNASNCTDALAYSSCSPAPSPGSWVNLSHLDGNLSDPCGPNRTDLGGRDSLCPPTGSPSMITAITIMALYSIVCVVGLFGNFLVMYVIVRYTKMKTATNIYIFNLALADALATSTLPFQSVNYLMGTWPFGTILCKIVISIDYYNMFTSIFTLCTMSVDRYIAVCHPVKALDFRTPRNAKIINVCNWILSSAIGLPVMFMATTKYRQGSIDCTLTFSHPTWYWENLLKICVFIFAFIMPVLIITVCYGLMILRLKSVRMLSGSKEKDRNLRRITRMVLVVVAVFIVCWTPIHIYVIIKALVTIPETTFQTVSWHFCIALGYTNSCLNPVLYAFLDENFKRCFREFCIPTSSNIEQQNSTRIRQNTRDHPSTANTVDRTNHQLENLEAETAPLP

In the case of `CN(C)CCCN1c2ccc([N+](=O)[O-])cc2CCc2cc([N+](=O)[O-])ccc21`, the CC50 [1] is reported as 18.5 µM (active), the CC50 [2] is reported as 15.4 µM (active) and the CC50 [3] is reported as 21.6 µM (active). The IC50 [4] was 8.59 µM (active), the IC50 [5] was 13.9 µM (active) and the IC50 [6] was 11.4 µM (active). The IC50 [7] was 10.8 µM (active).
For `Cc1cccc(S(=O)(=O)NCc2ccc(C(=O)NCCN3Cc4ccccc4C3)cc2)c1`, the IC50 [8] was > 32 µM (inactive), the IC50 [9] was > 32 µM (inactive) and the IC50 [10] was > 20 µM (inactive). The IC50 [11] was > 32 µM (inactive).
In the case of `CNC(=S)N/N=C/c1c(C(=O)OC)cnn1-c1ccc(Cl)cc1`, the IC50 [12] is reported as 1.25 µM (active), the IC50 [13] is reported as 4.11 µM (active) and the IC50 [14] is reported as > 32 µM (inactive).
